According to patent US20030157715A1, “Modulation of chromosome function by chromatin remodeling agents” (priority 2000, published 2003):
Values joined by “and” are separate entries in the source; they are usually repeats but may differ in a detail not shown here. Equal values may be shown once. “Also recorded” adds a separate entry of the source.

Experiments:
[1] = test system: satellite III chromatin in Kc nuclei; test: Chromatin opening of satellite III: topoisomerase II / restriction enzyme cleavage in Kc nuclei; assay type: biochemical, Drosophila
w^m4 flies = test: Polyamides fed to developing white-mottled flies; assay type: in vivo, Drosophila melanogaster; details: for Lethality / Sex comb (mean) / Sex comb, range of teeth / A6 to A5: fly stock w^m4; for A6 to A5: males with bristles on A6
Description: The eye phenotype of w^m4 flies is quite heterogeneous. About 65% of the eyes are strongly variegated, ranging from quasi-white with little pigment to those containing a generally white background and a number of red patches (defined as the white-mottled class). The remaining flies have eyes with a darker appearance with often larger red patches in an orange background (red-mottled class). Given the phenotypic heterogeneity of w^m4 flies, we carried out our experiments on a relatively large scale by mixing these compounds directly with semi-synthetic fly medium. Vials were prepared containing a final concentration of either 100 μM P9, P31 or no compound. Equal numbers of 5 to 10 days old w^m4 flies were allowed to lay eggs for 36 hours. The parents were then removed and progeny development was allowed to proceed at a constant temperature of 18° C. […] The timing of the developmental stages was also normal and generally, around 90 to 160 flies hatched per vial in this experiment (Table 2).
For eye phenotype analysis, young flies born on the same day were transferred to a drug-free vial and scored 5 days thereafter. Eye phenotypes were categorized into the two classes defined as white-mottled or red-mottled, after examination under a dissection microscope. […] Where in the absence of the drug, 62% of the eyes were scored as white-mottled, only 11% retained this phenotype for the flies raised in the presence of P9. […] In contrast, P31 had no effect on the w^m4 eye phenotype, since 64% of the flies remained white-mottled (FIG. 7C, Table 2).
Vials for egg laying containing polyamides were prepared as follows: 250 nmoles of P9, P31 was dissolved in 150 μl ddH2O and then mixed with 2.35 g of semi-synthetic fly media pre-heated at 60° C. These vials contained a concentration 100 μM of compound in final. After cooling down to room temperature, ˜300 w^m4 flies (age 5-10 days) were added to the vial for egg laying. Eggs were collected for a period of 36 hours at 18° C., mother flies were then removed and fly development was allowed to proceed at a constant temperature (18° C.±1). New-born flies of the same day were transferred to a fresh vial and scored after 5 days for eye phenotypes (Girard et al., 1998). For visual inspection of eye-phenotypes (Table 1), both female and male flies were scored. For optical density measurements of the eye-pigments, 30 heads of males were selected, pigments extracted and measured as described (Hazelrigg et al., 1984).
(§1) The lethality of the progenies was calculated by counting the dead bodies and the total empty pupal shells. The A6 to A5 transformation was detected by bristles that form on abdominal segment A6 on males. All male adult flies obtained (˜50) were scored. Sex combs and halteres were individually inspected and photographed under the microscope (Axiophot, Zeiss) after dissecting at least 30 individuals and incubating them into 30 μl of 0.6 g/ml gum arabic; 4 g/ml chlorohydrate; 35% glycerol under a 24×24 mm coverslip as described (Ashburner, 1989). Since raising double heterozygous flies (Ubx^1/+; bw^D/+) led to lethality, we morphologically dissected eight late stage pupae after carefully removing the pupal envelope.

[2] = test system: heterozygous bw^D flies (bw^D/+); test: Polyamides fed to developing heterozygous brown-dominant flies; assay type: in vivo, Drosophila melanogaster; details: for eye phenotype / trans-inactivation (in words): bw^D/+, st/st progeny
Experimental: It was therefore of great interest to test whether P31 would affect the eye phenotype of heterozygous bw^D flies. […] The experiment is similar to that described above for w^m4. Vials with semi-synthetic fly food medium were prepared containing a final concentration of 100 μM P31, P9 or no compound. Egg laying was allowed to proceed for 36 hours by homozygous (bw^D/bw^D) females that were crossed with scarlet (st/st) males. The progeny from this cross is heterozygous for the brown locus and homozygous for scarlet (bw^D/+; st/st). In a scarlet background, a modification of the bw^D eye color is much easier to observe (Talbert et al., 1994).
Drug treatments of the bw^D flies were performed as for w^m4 flies except that 30 parental females were allowed to lay eggs. To obtain the heterozygous bw^D/+; st/st progeny, 30 virgin bw^D/bw^D; st/st homozygous females were mated with scarlet homozygous males for about 5 days before transferring them to experimental vials for egg laying.
as §1

[3] = test system: GAF distribution at the bw^D insert of polytene nuclei; test: GAF immunofluorescence in permeabilized bw^D salivary glands; assay type: cell-based, Drosophila melanogaster; details: permeabilized glands incubated 60 minutes with compound
Experimental: We argued that perhaps P31 may open the bw^D insert as to render this heterochromatin more accessible for GAF binding. To address this question, we incubated permeabilized bw^D salivary glands either with P31, P9 or no drug and then triply stained the polytene nuclei for GAF (by immunofluorescence), total DNA (with DAPI) and for the bw^D insert (with P31T). Stained polytene glands were gently mounted for microscopy without squashing in order examine a large number of nuclei.
Kc nuclei and polytene chromosomes were stained with fluorescent polyamides as described elsewhere (Janssen et al., 2000). For immunofluorescence, polytene glands were carefully dissected from bw^D or Canton S. flies in 1× PBS as described (Ashburner, 1989) Whole glands in sol P (1×PBS supplemented with 1 mM MgCl2 and 0.1% digitonin) were then incubated for 60 minutes with various concentrations of either P31, P9 or no compound at room temperature. P31 (not P9) induced redistribution of GAF during this incubation step. Glands were washed then twice for 5 min with sol P and fixed with fresh paraformaldehyde at a final concentration of 0.8%. Glands were washed 5 times in sol P for 5 min and then blocked for 60 min in the same buffer, supplemented with 5% non-fat milk. […] Images were recorded with a wide field, deconvolution-type imaging system from DeltaVision.

[4] = 100 μM in fly food, eyes scored after 5 days
[5] = 30 male heads, spectrometry, 100 μM in food

CN(C)CCCNC(=O)CCNC(=O)c1cc(NC(=O)c2cc(NC(=O)c3cc(NC(=O)CCNC(=O)c4cc(NC(=O)c5cc(NC(=O)c6cccn6C)cn5C)cn4C)cn3C)cn2C)cn1C [Compound P9, PyPyPy-β-PyPyPy-β-Dp]
facilitation of cleavage by topoisomerase II (in words) [1]: strongly facilitate cleavage | stimulation of topoisomerase II cleavage at 62 nM ([1]; 62 nM, lowest concentration): massive cleavage stimulation | concentration of maximal stimulation of topoisomerase II cleavage ([1]; Kc nuclei in Xenopus egg extracts, VM26): 500 nM and 500 to 1000 nM | lower concentration than P31 needed to open satellite III ([1]; P9 versus P31): roughly 10 fold | cleavage within satellite III by restriction enzymes (HaeIII) ([1]; data not shown): facilitated cleavage within satellite III by restriction enzymes | effect on PEV / w^m4 eye phenotype (in words) (w^m4 flies; 100 μM in fly food): strong suppressor of PEV | "White mottled" (Strongly Variegated) (w^m4 flies; [4]): 8.9% | red pigment level relative to control flies (no drug) (w^m4 flies; [5]): about 3 times | red pigment level relative to wild type flies (w^m4 flies; [5]): about 50% | Lethality (w^m4 flies): 5-10% | Sex comb (mean) (w^m4 flies): 10.8 | Sex comb, range of teeth (w^m4 flies): 9-12 | A6 to A5 (w^m4 flies): 0% | eye phenotype / trans-inactivation (in words) [2]: indistinguishable from that of the no-drug control | A6 to A5, number of bristles on A6 ([2]; fly stock bw^D/bw^+): no bristles were observed | Lethality ([2]; fly stock bw^D/bw^+): 5-10% | A6 to A5 ([2]; fly stock bw^D/bw^+, males with bristles on A6): 0% | GAF distribution relative to the bw^D insert [3]: does not alter this pattern

CN(C)CCCNC(=O)CCNC(=O)c1nc(NC(=O)CCNC(=O)c2nc(NC(=O)CCNC(=O)c3cc(NC(=O)c4nc(NC(=O)CCNC(=O)c5nccn5C)cn4C)cn3C)cn2C)cn1C [Compound P31, Im-β-Im-Py-β-Im-β-Im-β-Dp]
concentration giving cleavage stimulation comparable to 62 nM of P9 [1]: 500 nM | stimulation of topoisomerase II cleavage up to 200 nM ([1]; up to 200 nM): no significant reinforcement | effect on PEV / w^m4 eye phenotype (in words) (w^m4 flies; 100 μM in fly food): no effect; also recorded: no activity | "White mottled" (Strongly Variegated) (w^m4 flies; [4]): 64% | "red Mottled" (Weakly Variegated) (w^m4 flies; [4]): 36% | Lethality (w^m4 flies): 5-10% | Sex comb (mean) (w^m4 flies): 10.8 | Sex comb, range of teeth (w^m4 flies): 9-13 | A6 to A5 (w^m4 flies): 0% | mean number of bristles on A6 ([2]; bw^D/+ progeny): 3.75 | eye phenotype / trans-inactivation (in words) [2]: does not overcome trans-inactivation to a significant extent | Lethality ([2]; fly stock bw^D/bw^+): 5-10% | Sex comb (mean) ([2]; fly stock bw^D/bw^+): 8.1 | Sex comb, range of teeth ([2]; fly stock bw^D/bw^+): 7-10 | PEV ([2]; fly stock bw^D/bw^+, grade, key not given): (+?) | progeny lacking bristles on A6 ([2]; heterozygous progeny): about 10% | Pupae delay ([2]; in vivo): 65 to 67 h | developmental delay ([2]; in vivo): over 2 days | GAF distribution relative to the bw^D insert [3]: dramatic GAF redistribution
